{"source": "patent US5183828A", "about": "“Polyhydroxybenzoic acid derivatives” (priority 1990, dated 1993)", "key": {"[1]": {"system": "isolated rabbit hearts", "test": "contractile function in isolated Langendorff rabbit heart after global ischemia and reperfusion, Table 9", "design": "species or system New Zealand white rabbits", "conditions": "30 min global ischemia, 45 min reperfusion; bolus of 10 mM solution then 100 uM over first min; control 49 ± 9 (p<0.01)", "text": "The compounds of this invention, as represented by the above formula, are useful in treating ischemia reperfusion injury, presumably because of their free-radical scavenging ability. The following protocol illustrates this activity on the ischemia produced during treatment of coronary artery disease.\n(§1) Female New Zealand white rabbits (2 kg) were heparinized and anesthetized and their hearts removed. The isolated rabbit hearts were perfused by the method of Langendorff at a constant pressure of 80 mm Hg with a Krebs-bicarbonate-buffered perfusate which was bubbled with 95% O2, 5 % CO2 gas. Chelex-treated perfusate was prepared by eluting the solution through a column of chelex 100 resin which was pre-equilibrated with 4 volumes of the perfusate solution. All perfusate solutions were routinely filtered through 0.8 um millipore filters prior to use. Heart rate and left ventricular developed pressure were measured using a fluid-filled balloon secured into the left ventrile. The balloon was connected to a Statham P23 DB pressure transducer via a hydraulic line and the transducer output amplified to a strip chart recorder. The ventricular volume was adjusted to achieve a left ventricular end disastolic pressure of 12 mmHg. During periods of global ischemia, the balloon was deflated and then reinflated 15 min after reflow. […]"}, "[2]": {"system": "DMPO-OH and DMPO-R radical adducts in coronary effluent of reperfused rabbit hearts", "test": "EPR spin trapping (DMPO) on coronary effluent of reperfused rabbit hearts", "design": "species or system New Zealand white rabbits", "experimental": "as §1, with “recorder.” for “recorder. The ventricular volume was adjusted to achieve a left ventricular end disastolic pressure of 12 mmHg. During periods of global ischemia, the balloon was deflated and then reinflated 15 min after reflow.”\nEPR spectra were recorded in flat cells at room temperature with either Varian E-9 or Bruker-IBM ER 300 spectrometers operating at X-band using 100 kHz modulation frequency and with TE 104 or TM 110 cavities. The microwave frequency and magnetic field were precisely measured using a Hewlett Packard 5342A Microwave Frequency counter and Bruker ER 035M NMR Gaussmeter. […] Quantitation of the free radical signals was performed by comparing the double integral of the observed signal to that of a known concentration of the tempo free radical in aqueous solution. […]"}, "[3]": {"system": "superoxide (xanthine oxidase reaction or human leukocytes)", "test": "effect on superoxide generation in vitro", "assay_type": "biochemical", "experimental": "The rate of production of superoxide from the xanthine oxidase reaction or from human leukocytes activated with phorbol myristate acetate was measured spectrophotometrically as the superoxide dismutase (SOD)-inhibitable portion of the reduction of ferricytochrome c or nitroblue tetrazolium (NBT). All assays were carried out at 37° C., pH 7.1. For the superoxide production by the xanthine oxidase reaction, a concentration of 0.04 U/ml of xanthine oxidase was used with 0.1 mM xanthine as substrate. Absorbances were measured in the presence of 30 U/ml of SOD and in its absence. The indicators were either ferricytochrome c or NBT in a concentration of 20 uM. The initial rate of reduction of NBT was monitored at 530 nm and that of cytochrome c at 550 nm. Extinction coefficients were 21.4×10 ^3 /M cm for cytochrome c and 17.9×10^3 /M cm for NBT. The initial rate of production of superoxide from leukocytes was measured using a concentration of 20 uM ferricytochrome c or NBT as described above in the presence and absence of 30 U/ml of SOD."}}, "data": [{"smiles": "NC(=NO)c1cc(O)c(O)c(O)c1", "note": "[3,4,5-trihydroxybenzamidoxime]", "values": [{"measurement": "Left ventricular developed pressure", "setting": "[1]", "result": "67±9", "unit": "mm Hg"}, {"measurement": "DMPO-OH and DMPO-R EPR signals upon reperfusion", "setting": "[2]; 40 mM DMPO, post-ischemic reperfusion with drug", "result": "not observed"}, {"measurement": "new radical EPR signal on reperfusion with drug", "setting": "[2]; with or without DMPO", "result": "appears as a single broad peak centered at 3480 G"}, {"measurement": "Cytochrome C Reduction", "setting": "[3]; 10 uM compound", "result": 4.73, "unit": "nmol"}, {"measurement": "NBT Reduction", "setting": "[3]; 10 uM compound", "result": 5.35, "unit": "nmol"}, {"measurement": "Cytochrome C Reduction", "setting": "[3]; 20 uM compound", "result": 4.56, "unit": "nmol"}, {"measurement": "NBT Reduction", "setting": "[3]; 20 uM compound", "result": 5.06, "unit": "nmol"}, {"measurement": "Cytochrome C Reduction", "setting": "[3]; 50 uM compound", "result": 5.38, "unit": "nmol"}, {"measurement": "NBT Reduction", "setting": "[3]; 50 uM compound", "result": 2.55, "unit": "nmol"}, {"measurement": "Cytochrome C Reduction", "setting": "[3]; 100 uM compound", "result": 6.06, "unit": "nmol"}, {"measurement": "NBT Reduction", "setting": "[3]; 100 uM compound", "result": 1.14, "unit": "nmol"}, {"measurement": "Cytochrome C Reduction", "setting": "[3]; 200 uM compound", "result": 6.50, "unit": "nmol"}, {"measurement": "NBT Reduction", "setting": "[3]; 200 uM compound", "result": 0.81, "unit": "nmol"}, {"measurement": "Cytochrome C Reduction", "setting": "[3]; 300 uM compound", "result": 6.25, "unit": "nmol"}, {"measurement": "NBT Reduction", "setting": "[3]; 300 uM compound", "result": 0.71, "unit": "nmol"}, {"measurement": "Cytochrome C Reduction", "setting": "[3]; 500 uM compound", "result": 5.81, "unit": "nmol"}, {"measurement": "NBT Reduction", "setting": "[3]; 500 uM compound", "result": 0.87, "unit": "nmol"}]}]}
